Here are results for eight molecules from PubChem BioAssay (NCI).

Structures are written as SMILES.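 Assay format: 96-well plates, 48-hour exposure. GI50: concentration for 50% inhibition of growth. Definition used: TGI = concentration required for complete inhibition of growth.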

Test systems include MDA-MB-231 breast; EKVX NSCLC; CCRF-CEM leukemia; SNB-19 CNS; HOP-62 NSCLC; ACHN renal; SK-OV-3 ovarian; SK-MEL-5 melanoma; HCC-2998 colon; SR leukemia.
Holding throughout (assay): NCI-60 cell line screen, 48 h

Take `O=C(O)c1c2c(c(O)c3c1CN(C1CCCCC1)CO3)OCN(C1CCCCC1)C2`: the TGI in the test on MDA-MB-231 breast was above 100 µM; with EKVX NSCLC, above 100 µM; in the test with CCRF-CEM leukemia, 55.7 µM; with SNB-19 CNS, above 100 µM; with HOP-62 NSCLC it was above 100 µM; in the test with ACHN renal, above 100 µM. The TGI with SK-OV-3 ovarian is above 100 µM; in the test with SK-MEL-5 melanoma, above 100 µM; in the test on HCC-2998 colon, 84.1 µM; with SR leukemia, 73 µM.
As for `C=C(C)[C@@H]1CC[C@]2(C(=O)OC)CC[C@]3(C)[C@H](CC[C@@H]4[C@@](C)(CCc5nn[nH]n5)[C@H](C(=C)C)CC[C@]43C)[C@@H]12`, the GI50 with MDA-MB-231 breast was 15.5 µM; in the test with EKVX NSCLC, 19.2 µM; in the test with CCRF-CEM leukemia it was 6.72 µM; with SNB-19 CNS, 15.4 µM; in the test with HOP-62 NSCLC, 18.7 µM; in the test on ACHN renal, 15 µM. Further, the GI50 with SK-OV-3 ovarian is 25.6 µM; in the test on SK-MEL-5 melanoma it was 11.4 µM; in the test on HCC-2998 colon it was 15.8 µM; in the test on SR leukemia it was 11.4 µM. The TGI worked out at 30.8 µM in the test with MDA-MB-231 breast; 61 µM with EKVX NSCLC; 37.2 µM in the test on CCRF-CEM leukemia; 35.7 µM in the test with SNB-19 CNS; 41.1 µM in the test on HOP-62 NSCLC; 48.1 µM in the test on ACHN renal. For the same molecule, the TGI in the test with SK-OV-3 ovarian was determined as 82.8 µM; in the test on SK-MEL-5 melanoma it was 24.4 µM; in the test with HCC-2998 colon it was 30.5 µM; with SR leukemia, 49.4 µM.
For `Cc1cc(NC(=O)NCCCOc2ccc(N3C(N)=NC(N)=NC3(C)C)cc2Cl)ccc1S(=O)(=O)F`, the GI50 is 7.16 µM with MDA-MB-231 breast; 1.32 µM with EKVX NSCLC; 0.561 µM in the test with CCRF-CEM leukemia; 0.92 µM in the test with SNB-19 CNS; 2.24 µM in the test with HOP-62 NSCLC; 11.3 µM in the test on ACHN renal. The GI50 in the test with SK-OV-3 ovarian was 9.72 µM; with SK-MEL-5 melanoma it was 0.492 µM; in the test on HCC-2998 colon, 2.06 µM; with SR leukemia, 0.369 µM. The TGI with MDA-MB-231 breast was above 100 µM; with EKVX NSCLC, above 100 µM; in the test with CCRF-CEM leukemia, above 63.5 µM; with SNB-19 CNS, above 54.7 µM; in the test on HOP-62 NSCLC it was 19.6 µM; with ACHN renal, above 100 µM. Further, the TGI with SK-OV-3 ovarian was above 82.3 µM; in the test with SK-MEL-5 melanoma it was 11.1 µM; in the test with HCC-2998 colon, above 69.2 µM; with SR leukemia, above 46.2 µM.
`CC(C)(C)CNCCO`: the TGI in the test on MDA-MB-231 breast, with EKVX NSCLC, in the test with CCRF-CEM leukemia, with SNB-19 CNS, in the test with HOP-62 NSCLC and with ACHN renal was above 100 µM throughout. Moreover, the TGI with SK-OV-3 ovarian, in the test with SK-MEL-5 melanoma, in the test on HCC-2998 colon and in the test on SR leukemia was above 100 µM each time.
With `COCCn1c(Nc2ccc(C(=O)NO)cc2)nc2ccccc21`, the GI50 is 4.65 µM in the test with MDA-MB-231 breast; 1.89 µM in the test with EKVX NSCLC; 3.52 µM in the test on CCRF-CEM leukemia; 10.7 µM in the test on SNB-19 CNS; 4.58 µM in the test with HOP-62 NSCLC; 2.85 µM with ACHN renal. Moreover, the GI50 with SK-OV-3 ovarian was 3.45 µM; in the test on SK-MEL-5 melanoma, 3.55 µM; in the test on HCC-2998 colon it was 3.32 µM; in the test on SR leukemia it was 1.69 µM. For the same molecule, the TGI is 44.7 µM with MDA-MB-231 breast; 21.4 µM in the test with EKVX NSCLC; above 100 µM in the test with CCRF-CEM leukemia; 30 µM in the test with SNB-19 CNS; 55.1 µM with HOP-62 NSCLC; 12.9 µM in the test with ACHN renal. The TGI with SK-OV-3 ovarian is 20.2 µM; in the test on SK-MEL-5 melanoma it was 12.9 µM; with HCC-2998 colon, 12.6 µM; with SR leukemia, above 100 µM.
`Cc1ccc(NC(=O)c2ccoc2)cc1-c1ccc(C(=O)NCC2CC2)cc1`: the GI50 with MDA-MB-231 breast was above 22.6 µM; in the test with EKVX NSCLC, above 13.5 µM; with CCRF-CEM leukemia, above 25 µM; with SNB-19 CNS it was above 25 µM; in the test on HOP-62 NSCLC, above 25 µM; in the test on ACHN renal, above 25 µM. Moreover, the GI50 in the test on SK-OV-3 ovarian was above 25 µM; with SK-MEL-5 melanoma, 7.75 µM; in the test with HCC-2998 colon, above 25 µM; in the test with SR leukemia, above 25 µM. Further, the TGI with MDA-MB-231 breast, in the test on EKVX NSCLC, in the test with CCRF-CEM leukemia, with SNB-19 CNS, in the test with HOP-62 NSCLC and in the test with ACHN renal was above 25 µM throughout. The TGI in the test on SK-OV-3 ovarian, with SK-MEL-5 melanoma, in the test with HCC-2998 colon and with SR leukemia was above 25 µM in each case.
With `CCCCCCCCCCCC1=NC(C)(C)CN1C(C)C`, the GI50 with MDA-MB-231 breast was 3.67 µM; in the test on EKVX NSCLC, 6.55 µM; in the test with CCRF-CEM leukemia it was 2.7 µM; with SNB-19 CNS, 11.3 µM; with HOP-62 NSCLC it was 4.35 µM; with ACHN renal, 4.15 µM. The GI50 with SK-OV-3 ovarian is 7.51 µM; with SK-MEL-5 melanoma, 2.05 µM; with HCC-2998 colon, 1.71 µM; with SR leukemia it was 1.71 µM. Also, the TGI in the test on MDA-MB-231 breast turned out to be 14 µM; in the test on EKVX NSCLC, 21.1 µM; with CCRF-CEM leukemia, 10.1 µM; in the test on SNB-19 CNS, 23.4 µM; in the test on HOP-62 NSCLC, 16.2 µM; in the test with ACHN renal it was 15.7 µM. For the same molecule, the TGI with SK-OV-3 ovarian came to 20 µM; with SK-MEL-5 melanoma, 4.34 µM; in the test with HCC-2998 colon, 3.27 µM; in the test with SR leukemia, 4.32 µM.
On to `C[C@]12CC[C@H]3[C@@H](CCC4=CC(=O)CC[C@@]43C)[C@]1(O)CC[C@]2(O)C(=O)CO`, for which the TGI with MDA-MB-231 breast, in the test on EKVX NSCLC, in the test on CCRF-CEM leukemia, with SNB-19 CNS, with HOP-62 NSCLC and in the test with ACHN renal was above 100 µM each time. Besides, the TGI in the test on SK-OV-3 ovarian, in the test with SK-MEL-5 melanoma, in the test on HCC-2998 colon and in the test with SR leukemia was above 100 µM in each case.
